From US6927035B1, “Antiuracil monoclonal antibody” (Taiho Pharmaceutical Co., LTD, priority 1999, dated 2005)
Converted amounts (≈) assume the structure as drawn.

Legend:
[1] = test system: monoclonal antibody of the present invention (CMU-1); assay: indirect competitive inhibition ELISA, cross reactivity test with monoclonal antibody CMU-1; type: binding, mouse; details: for percent absorption (reactivity) with monoclonal antibody CMU-1: compound final concentration 0.5 mg/mL, uracil-BSA coated plate, absorbance at 415 nm; for dose-dependent response of the antibody to the compound / ED30 (concentration when the percent absorption reached 30%) / binding ability relative to pseudouridine: monoclonal antibody CMU-1; for binding ability relative to pseudouridine: ratio of ED30 values
Protocol: Into a 96-well immunoplate, uracil-BSA complex (10 μg/mL as reduced to BSA) was placed at 50 μL/well, and allowed to stand overnight at 4° C. Subsequently, the immunoplate was washed 7 times with PBS containing 0.1% polyoxyethylene(20) sorbitan monolaurate (product of Wako Pure Chemical Industries, Ltd.; a product equivalent to Tween 20) (pH 7.3-7.7, product of Nissui Chemical; hereinafter referred to as PBS-T). Subsequently, 0.2% gelatin (200 μL) was added to each well, and the immunoplate was left for 2 hours at 37° C., or overnight at 4° C.
Subsequently, the immunoplate was washed five times with PBS-T, and one of the below-described samples (50 μL/well) was added to the immunoplate, which was then left for 1 hour at 37° C. • (i) a reaction mixture prepared by mixing the supernatant of the hybridoma culture obtained in Example 3 (hereinafter referred to as the hybridoma culture supernatant) (30 μL) and PBS (30 μL) for reaction at 37° C. for one hour; • a (ii) a reaction mixture obtained by mixing the hybridoma culture supernatant (30 μL) and a solution (30 μL) of uracil in PBS (uracil concentration: 1 mg/mL) for reaction at 37° C. for one hour; and • (iii) 1 μg/mL healthy mouse IgG (product of Biological). Subsequently, the wells were washed five times with PBS-T, and to each well was added alkaline-phosphatase-labeled (AP-labeled) anti-mouse-multivalent-immunoglobulin antibody (product of Sigma), which had been 1,000-fold diluted with 0.1% gelatin, (50 μL). Subsequently, the mixture was allowed to stand for one hour at 37° C. Subsequently, the wells were washed five times with PBS-T. A solution of disodium p-nitrophenylphosphate (product of Wako Chemical Industries, Ltd.) dissolved in substrate buffer (1 mg/mL) was added to each well (100 μL/well), and left for 30 minutes at 37° C. To the reaction mixtures, 2N NAOH (50 μL/well) was added and then mixed by use of a platemixer, to thereby stop the reaction. Absorbance at 415 nm was measured by use of a microplate reader.
The percent absorption was calculated by use of the following equation: [formula] wherein, • ODPBS: Absorbance measured by means of ELISA for a sample in which the hybridoma culture supernatant had been pre-treated only with PBS), • ODuracil: Absorbance measured by means of ELISA for a sample in which the hybridoma culture supernatant had been pre-treated with uracil in PBS), and • ODcontrol: Absorbance measured in ELISA of a sample treated only with heal thy mouse IgG).
By use of the hybridoma culture supernatant obtained from the above-described incubation, the reactivity of the monoclonal antibody, CMU-1, of the present invention was studied through the indirect competitive inhibition ELISA described in Example 4.
Specifically, an aliquot (50 μL) of uracil-BSA complex (10 μg/mL) was placed in each well of a 96-well immunoplate (Immunoplate I, product of Nunc), and allowed to stand overnight at 4° C. Each well was washed five times with PBS-T (200 μL) containing 0.1% Tween 20. Subsequently, to each well of the immunoplate, PBS (200 μL) containing 0.2% gelatin serving as a blocking agent was added, and the mixture was allowed to stand overnight at 4° C. Each well was again washed five times with PBS-T, to thereby prepare a plate.
Meanwhile, each of the follow samples: • (i) a mixture of the aforementioned hybridoma culture supernatant (30 μL) and PBS (30 μL); • (ii) a reaction mixture obtained by mixing the hybridoma culture supernatant (30 μL) and PBS (30 μL) containing uracil at a concentration of 0.03-1.0 mg/mL and causing reaction to proceed at 37° C. for one hour; and • (iii) […] healthy mouse IgG (product of Biologicals) was added to a 96-well plate to which the above antigen had been adsorbed (50 μL/well), and the plate was left to stand for one hour at 37° C. […]

[2] = test system: monoclonal antibody (SU-1) derived from hybridoma FERM BP-6141; assay: indirect competitive inhibition ELISA, cross reactivity test with comparative monoclonal antibody SU-1; type: binding; details: compound final concentration 0.5 mg/mL; uracil-BSA coated plate; absorbance at 415 nm
Protocol: Meanwhile, each of the follow samples: • (i) a mixture of the aforementioned hybridoma culture supernatant (30 μL) and PBS (30 μL); • (ii) a reaction mixture obtained by mixing the hybridoma culture supernatant (30 μL) and PBS (30 μL) containing uracil at a concentration of 0.03-1.0 mg/mL and causing reaction to proceed at 37° C. for one hour; and • (iii) […] healthy mouse IgG (product of Biologicals) was added to a 96-well plate to which the above antigen had been adsorbed (50 μL/well), and the plate was left to stand for one hour at 37° C. Subsequently, the plate was washed five times with PBS-T, and to each well, aliquots (50 μL) of AP-labeled anti-mouse antibody (serving as the second antibody, product of Sigma), which had been 1,000-fold diluted with PBS containing 0.1% gelatin, were added, and the mixtures were allowed to stand for one hour at 37° C. Subsequently, each well was washed five times with PBS-T. An enzyme substrate buffer solution (p-nitrophenylphosphate, 1 mg/mL, pH 9.8) was added to each well (100 μl/well), and left to stand for 30 minutes at 37° C. To the reaction mixtures, 2N NaOH ([…]) was added, to thereby stop the reaction. Absorbance at 415 nm was measured by use of a microplate reader. For comparison, the same procedure was independently performed on hybridoma FERM BP-6141 described in PCT publication No. WO99/20748. The percent absorption was calculated from the above-described equation.
In a manner similar to that of Example 7, reactivity of the monoclonal antibody of the present invention with other compounds was investigated. Specifically, the procedure of step (ii) of Example 7 for investigating inhibition with uracil was repeated, except that pseudouridine, dihydrouracil, dihydrothymine, thymine, cytosine, or N-carbamyl-β-alanine (1 mg/mL) was used instead of uracil (1 mg/mL), to thereby investigate reactivity of the monoclonal antibody of the present invention with uracil compounds. As a comparative antibody, a monoclonal antibody (SU-1) derived from hybridoma “FERM BP-6141” described in WO 99/20748 was used.

[3] = test system: monoclonal antibody for psuedouridine; details: prior art antibody used for diagnosing a progressive cancer; cited from earlier work

SMILES	percent absorption (reactivity) with monoclonal antibody CMU-1 [1]	dose-dependent response of the antibody to the compound [1]	percent absorption (reactivity) with comparative monoclonal antibody SU-1 [2]	ED30 (concentration when the percent absorption reached 30%) [1]	binding ability relative to pseudouridine [1]	concentration range in which the compound is detected ([1]; monoclonal antibody CMU-1, FIG. 1)	reactivity with the monoclonal antibody for pseudouridine [3]
O=C1CCNC(=O)N1 [Dihydrouracil]	8%	no dose-dependent response	2%	–	–	–	–
Cc1c[nH]c(=O)[nH]c1=O [Thymine]	91-97%	exhibited dose-dependent response	5%	0.015 mg/mL (≈ 119 µM)	26 times	–	–
O=c1cc[nH]c(=O)[nH]1 [Uracil]	95-96%	exhibited dose-dependent response	41%	0.03 mg/mL (≈ 268 µM)	13 times	0.005 to 0.5 mg/mL	30-40%
CC1CNC(=O)NC1=O (stereo not shown) [Dihydrothymine]	22%	no dose-dependent response	–	–	–	–	–
NC(=O)NCCC(=O)O [N-Carbamyl-β-alanine]	8%	no dose-dependent response	91%	–	–	–	–
O=c1[nH]cc([C@@H]2O[C@H](CO)[C@@H](O)[C@H]2O)c(=O)[nH]1 [Pseudouridine]	32%	did exhibit dose-dependent response	26%	0.39 mg/mL (≈ 1600 µM)	–	–	95-99%
Nc1cc[nH]c(=O)n1 [Cytosine]	15%	no dose-dependent response	15%	–	–	–	–
